The source of these data is patent US20100120798A1, “SUBSTITUTED PIPERIDINES CONTAINING A HETEROARYLAMIDE OR HETEROARYLPHENYL MOIETY” (ASTEX THERAPEUTICS LIMITED, priority 2006, published 2010).

Assay [1] deals with hERG K+ ion channel (Homo sapiens, UniProt Q12809). Description: hERG activity. The format is cell-based. The note with it: assay of Bridgland-Taylor et al.; read-out: IC50 against hERG K+ ion channel. The source says:
The activity of compounds of the invention against the hERG K^+ ion channel can be determined using the assay described in the article by M. H. Bridgland-Taylor et al., Journal of Pharmcaological and Toxicological Methods, 54 (2006), 189-199.
A general note: hERG is a cardiac potassium channel; its block is linked to QT prolongation.

Assay [2] is described as follows: In vitro MDA-MB-468 human breast adenocarcinoma GSK-3 phosphorylation assay. In kind it is cell-based. To be noted: mean IC50, MDA-MB-468 cells, 2 hours with compound, phospho-GSK-3β. The source says:
This assay determines the ability of test compounds to inhibit phosphorylation of Serine-9 residue in Glycogen Synthase Kinase-3beta (GSK-3β) as a surrogate marker of cellular PKB (Akt) activity, as assessed using Acumen Explorer Fluorescent Plate-Reader technology. A MDA-MB-468 human breast adenocarcinoma cell line (LGC Promochem, Teddington, Middlesex, UK, Catalogue No. HTB-132) was routinely maintained in Dulbecco's modified Eagle's growth medium (DMEM; Invitrogen Limited, Paisley, UK Catalogue No. 11966-025) containing 10% heat-inactivated foetal calf serum (FCS; Sigma, Poole, Dorset, UK, Catalogue No. F0392) and 1% L-glutamine (Gibco, Catalogue No. 25030-024) at 37° C. with 5% CO2 up to a confluency of 70-90%.
For the phosphorylation assay, the cells were detached from the culture flask using Trypsin-EDTA (Invitrogen Limited, Catalogue No. 25300-062) and seeded into the wells of a black transparent-bottom Corning Costar Polystyrene 96 well plate (Fisher Scientific UK, Loughborough, Leicestershire, UK; Catalogue No. 3904 and DPS-130-020K) at a density of 5000 cells per well in 100 μl of complete growth media. The cells were incubated overnight at 37° C. with 5% CO2 to allow them to adhere.
On day 2, the cells were treated with test compounds and incubated for 2 hours at 37° C. with 5% CO2. Test compounds were prepared as 10 mM stock solutions in DMSO and dosed directly to required concentration into test wells using non-contact (acoustic dispensing of multiple 2.5 nl droplets directly into assay wells) ECHO dosing technology (Labcyte Inc. Sunnyvale, Calif., USA). Each plate contained control wells without test compound.
20 μl of fixing buffer (Phosphate Buffered Saline (PBS) containing 10% formaldehyde; Sigma; Catalogue No. F1635) was then added to each well to give a final well concentration 1.6%. Plates were then incubated for 30 minutes at room temperature prior to the fixative being removed. Each well was washed once with 250 μl of PBS and then 50 μl PBS added to each well. PBS was then aspirated and cells permeabilised and blocked by incubating each well with 50 μl of permeabilisation/blocking buffer (PBS containing 0.5% Tween 20 (Sigma; Catalogue No. P5927) and 5% Marvel Milk Powder (Andrews Pharmacy Ltd, Macclesfield, Cheshire, UK; Catalogue No. APC100199)) for 1 hour at room temperature prior to staining.
Following removal of Perm/Block buffer, 50 μl of primary anti-phospho-GSK-3β antibody (Cell Signalling Technology (New England Biolabs (Uk) Ltd.), Hitchin, Hertfordshire, UK; Catalogue No. 9336 diluted 1:400 in Blocking buffer (PBS containing 5% Marvel and 0.05% Tween/Polysorbate 20) was added to each well and incubated overnight at 4° C.
Each well was washed three times in 250 μl of wash buffer (PBS containing 0.05% polysorbate 20), and cells incubated for 1 hour at room temperature with 50 μl of secondary fluorescently-labelled anti-rabbit Alexa Fluor 488 antibody (Molecular Probes, Invitrogen Limited, Catalogue No. A11008) diluted 1:750 in blocking buffer. Plates were washed three times in 250 μl of wash buffer and stored containing 50 μl of PBS at 4° C. until required.
Plates were analysed using an Acumen Explorer Plate-reader to quantify level of fluorescent signal that represents quantity of phosphorylated-GSK-3β.
IC50 calculation—IC50 is the concentration of compound required to give 50% effect over the range of activity affected by the compound, between maximum (no compound) and minimum (excess level of compound) response control data. IC50 values were determined by fitting background corrected, dose response assay data to a 4 parameter logistic curve fit equation model with the minimum response set to zero. This was done using an in-house developed algorithm within the Origin graphing software package (OriginLab Corporation, Northampton, Mass., USA). […]

hERG K+ ion channel, sequence (Q12809 whole entry): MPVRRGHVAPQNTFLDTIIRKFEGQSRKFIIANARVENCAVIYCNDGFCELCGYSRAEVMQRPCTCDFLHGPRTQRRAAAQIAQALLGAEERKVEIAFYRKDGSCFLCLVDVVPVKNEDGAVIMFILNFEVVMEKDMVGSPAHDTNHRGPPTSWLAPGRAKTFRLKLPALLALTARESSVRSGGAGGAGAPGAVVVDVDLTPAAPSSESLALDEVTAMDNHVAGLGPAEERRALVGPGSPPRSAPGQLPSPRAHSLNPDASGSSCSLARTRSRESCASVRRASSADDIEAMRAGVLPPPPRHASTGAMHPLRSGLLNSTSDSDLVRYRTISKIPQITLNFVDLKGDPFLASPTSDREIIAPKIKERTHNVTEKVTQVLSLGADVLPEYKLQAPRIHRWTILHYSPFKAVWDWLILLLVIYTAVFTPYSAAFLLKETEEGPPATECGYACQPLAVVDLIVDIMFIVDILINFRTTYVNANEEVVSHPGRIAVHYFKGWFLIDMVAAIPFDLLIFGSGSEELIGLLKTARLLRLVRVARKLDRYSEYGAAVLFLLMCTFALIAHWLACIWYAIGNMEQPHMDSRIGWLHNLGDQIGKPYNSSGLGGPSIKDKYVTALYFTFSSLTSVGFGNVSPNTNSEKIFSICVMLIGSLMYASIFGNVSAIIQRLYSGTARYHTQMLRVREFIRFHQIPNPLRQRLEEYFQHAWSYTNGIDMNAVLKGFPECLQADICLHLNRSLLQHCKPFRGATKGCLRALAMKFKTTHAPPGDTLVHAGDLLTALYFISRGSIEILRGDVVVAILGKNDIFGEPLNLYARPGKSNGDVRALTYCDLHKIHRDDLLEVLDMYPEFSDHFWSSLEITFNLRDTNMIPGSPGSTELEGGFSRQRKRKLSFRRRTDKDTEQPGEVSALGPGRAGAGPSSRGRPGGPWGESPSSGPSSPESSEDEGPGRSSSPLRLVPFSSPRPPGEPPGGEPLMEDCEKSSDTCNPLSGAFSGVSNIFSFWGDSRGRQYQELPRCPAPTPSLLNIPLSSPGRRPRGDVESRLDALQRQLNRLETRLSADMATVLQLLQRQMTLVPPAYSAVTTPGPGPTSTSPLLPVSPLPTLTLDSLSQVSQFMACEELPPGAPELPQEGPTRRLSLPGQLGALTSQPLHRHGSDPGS

Turning to `NCC1(C(=O)NCc2ccc(Cl)nc2)CCN(c2ncnc3[nH]ccc23)CC1` [Example 1, 4-Aminomethyl-1-(7H-pyrrolo[2,3-d]pyrimidin-4-yl)-piperidine-4-carboxylic acid (6-chloro-pyridin-3-ylmethyl)-amide], the results for the IC50 in assay [1] and in assay [2] were > 32 µM and 0.059 µM, respectively.
Taken in the same sequence, the figures for `Cn1cc(-c2cccc(C3(CN)CCN(c4ncnc5[nH]cnc45)CC3)c2)cn1` [Example 6, C-[4-[3-(1-Methyl-1H-pyrazol-4-yl)-phenyl]-1-(9H-purin-6-yl)-piperidin-4-yl]-methylamine] were > 32 µM and 0.031 µM.
Take `NC1(C(=O)NCc2ccc(Cl)nc2)CCN(c2ncnc3[nH]ccc23)CC1` [Example 4, 4-Amino-1-(7H-pyrrolo[2,3-d]pyrimidin-4-yl)-piperidine-4-carboxylic acid (6-chloro-pyridin-3-ylmethyl)amide]: the results for the half-maximal inhibitory concentration (IC50) in assay [1] and in assay [2] were > 32 µM and 0.88 µM, respectively.
Consider `NCC1(c2cccc(-c3cccnc3)c2)CCN(c2ncnc3[nH]ccc23)CC1` [Example 76, [4-(3-pyridin-3-ylphenyl)-1-(7H-pyrrolo[3,2-e]pyrimidin-4-yl)piperidin-4-yl]methanamine], for which, in assay [2], the IC50 was 0.033 µM.

For orientation: IC50 means the concentration that gives 50% inhibition.
